Results published in paper PMC10539439 (Pharmacological Reports, 2023).

Assay: Blood pressure, 24-h telemetric method, normotensive rats
Type: in vivo, rat
Conditions: 5 mg/kg
Protocol: The blood pressure of rats treated with the tested compound was measured for a 24 h period after ip treatment (5 mg/kg b.w.) with a special telemetric system Stellar (TSE-Systems, Germany).
Surgery: The operation was carried out over 30 min under sterile conditions. Rats were anaesthetized with ketamine and xylasine (intramuscular injection: 100 mg/kg and 10 mg/kg). Before surgery and for 7 days after, the animals were also treated with cefuroxime (20 mg/kg/day) via intramuscular injection and ketoprofen (5 mg/kg/day) via ip injection. […] The transmitter was sutured to the peritoneal cavity.
The rats were individually caged for 2 weeks to heal after surgical cut. The animals were then placed in pairs in cages to reduce their isolation stress. Blood pressure was measured: before ip administration of the compounds – time 0 min and 24 h thereafter.

[1] = telemetry, after first administration, time 0, n 6
[2] = telemetry, after first administration, time 0.25, n 6
[3] = telemetry, after first administration, time 0.5, n 6
[4] = telemetry, after first administration, time 0.75, n 6
[5] = telemetry, after first administration, time 1, n 6
[6] = telemetry, after first administration, time 1.25, n 6
[7] = telemetry, after first administration, time 1.5, n 6
[8] = telemetry, after first administration, time 1.75, n 6
[9] = telemetry, after first administration, time 2, n 6
[10] = telemetry, after first administration, time 3, n 6
[11] = telemetry, after first administration, time 4, n 6
[12] = telemetry, after first administration, time 5, n 6
[13] = telemetry, after first administration, time 6, n 6
[14] = telemetry, after first administration, time 7, n 6
[15] = telemetry, after first administration, time 8, n 6
[16] = telemetry, after first administration, time 9, n 6
[17] = telemetry, after first administration, time 10, n 6

N=C(N)N/N=C/c1c(Cl)cc(O)cc1Cl [4HOGuanabenz]
diastolic pressure, mean (rat, time 0.5): 94.25 mmHg | systolic pressure, mean (rat, time 0.5): 131.8 mmHg | diastolic pressure, mean (rat, time 0.75): 87.25 mmHg | systolic pressure, mean (rat, time 0.75): 118.5 mmHg | diastolic pressure, mean (rat, time 1): 82.5 mmHg | systolic pressure, mean (rat, time 1): 111.8 mmHg | diastolic pressure, mean (rat, time 1.25): 78.5 mmHg | systolic pressure, mean (rat, time 1.25): 107.3 mmHg | diastolic pressure, mean (rat, time 1.5): 79.75 mmHg | systolic pressure, mean (rat, time 1.5): 117.5 mmHg | diastolic pressure, mean (rat, time 1.75): 80.5 mmHg | systolic pressure, mean (rat, time 1.75): 111.3 mmHg | diastolic pressure, mean (rat, time 2): 78.75 mmHg | systolic pressure, mean (rat, time 2): 117.5 mmHg | diastolic pressure, mean (rat, time 3): 77 mmHg | systolic pressure, mean (rat, time 3): 109.8 mmHg | diastolic pressure, mean (rat, time 4): 80.5 mmHg | systolic pressure, mean (rat, time 4): 117 mmHg | diastolic pressure, mean (rat, time 5): 81 mmHg | systolic pressure, mean (rat, time 5): 116.5 mmHg | diastolic pressure, mean (rat, time 6): 77.5 mmHg | systolic pressure, mean (rat, time 6): 119.8 mmHg | diastolic pressure, mean (rat, time 7): 76.25 mmHg | systolic pressure, mean (rat, time 7): 117.3 mmHg | diastolic pressure, mean (rat, time 8): 66.75 mmHg | systolic pressure, mean (rat, time 8): 113.3 mmHg | diastolic pressure, mean (rat, time 9): 83.5 mmHg | systolic pressure, mean (rat, time 9): 131.8 mmHg | diastolic pressure, mean (rat, time 10): 70.75 mmHg | systolic pressure, mean (rat, time 10): 120.8 mmHg | diastolic pressure, mean (rat, time 11): 81.5 mmHg | systolic pressure, mean (rat, time 11): 125.3 mmHg | diastolic pressure, mean (rat, time 12): 77.25 mmHg | systolic pressure, mean (rat, time 12): 123.8 mmHg | diastolic pressure, mean (rat, time 13): 75.75 mmHg | systolic pressure, mean (rat, time 13): 113 mmHg | diastolic pressure, mean (rat, time 14): 73.25 mmHg | systolic pressure, mean (rat, time 14): 113.5 mmHg | diastolic pressure, mean (rat, time 15): 77.5 mmHg | systolic pressure, mean (rat, time 15): 113.3 mmHg | diastolic pressure, mean (rat, time 16): 79.5 mmHg | systolic pressure, mean (rat, time 16): 121.8 mmHg | diastolic pressure, mean (rat, time 17): 88.25 mmHg | systolic pressure, mean (rat, time 17): 124.5 mmHg | diastolic pressure, mean (rat, time 18): 76 mmHg | systolic pressure, mean (rat, time 18): 118.5 mmHg | diastolic pressure, mean (rat, time 19): 76 mmHg | systolic pressure, mean (rat, time 19): 117.5 mmHg | diastolic pressure, mean (rat, time 20): 66 mmHg | systolic pressure, mean (rat, time 20): 108.8 mmHg | diastolic pressure, mean (rat, time 21): 70.5 mmHg | systolic pressure, mean (rat, time 21): 103.3 mmHg | diastolic pressure, mean (rat, time 22): 74.5 mmHg | systolic pressure, mean (rat, time 22): 110.3 mmHg | diastolic pressure, mean (rat, time 23): 75.25 mmHg | systolic pressure, mean (rat, time 23): 116.3 mmHg | diastolic pressure, mean (rat, time 24): 72.75 mmHg | systolic pressure, mean (rat, time 24): 109.5 mmHg | diastolic pressure, mean [1]: 80.5 mmHg | systolic pressure, mean [1]: 126.2 mmHg | diastolic pressure, mean [2]: 92.75 mmHg | systolic pressure, mean [2]: 141 mmHg | diastolic pressure, mean [3]: 87.5 mmHg | systolic pressure, mean [3]: 127.3 mmHg | diastolic pressure, mean [4]: 78 mmHg | systolic pressure, mean [4]: 115.6 mmHg | diastolic pressure, mean [5]: 81.38 mmHg | systolic pressure, mean [5]: 117.3 mmHg | diastolic pressure, mean [6]: 76.88 mmHg | systolic pressure, mean [6]: 111 mmHg | diastolic pressure, mean [7]: 75.13 mmHg | systolic pressure, mean [7]: 106 mmHg | diastolic pressure, mean [8]: 80.13 mmHg | systolic pressure, mean [8]: 112.4 mmHg | diastolic pressure, mean [9]: 74.63 mmHg | systolic pressure, mean [9]: 107 mmHg | diastolic pressure, mean [10]: 78.75 mmHg | systolic pressure, mean [10]: 110.8 mmHg | diastolic pressure, mean [11]: 68.75 mmHg | systolic pressure, mean [11]: 107.9 mmHg | diastolic pressure, mean [12]: 80.88 mmHg | systolic pressure, mean [12]: 114.1 mmHg | diastolic pressure, mean [13]: 78 mmHg | systolic pressure, mean [13]: 111.6 mmHg | diastolic pressure, mean [14]: 71 mmHg | systolic pressure, mean [14]: 111.1 mmHg | diastolic pressure, mean [15]: 72.75 mmHg | systolic pressure, mean [15]: 110.8 mmHg | diastolic pressure, mean [16]: 77.88 mmHg | systolic pressure, mean [16]: 114.6 mmHg | diastolic pressure, mean [17]: 77.63 mmHg | systolic pressure, mean [17]: 114.9 mmHg | diastolic pressure, mean (telemetry, after first administration, time 11, n 6): 70.75 mmHg
